From US20230000852A1, “Treatment of Dermal Cytokine Storm Syndromes” (Bridge Pharma, Inc., priority 2021, published 2023)
Read-outs that look alike come from different tables or passages of the source.

How the values were obtained:
[1] = system: human leucocytes (buffy coats); experiment: Cytokine and chemokine release from stimulated human leucocytes, overall; format: cell-based; settings: PHA 5 μg/ml, 16 hours
Description: (§1) The objective of this study was to assess the ability of norketotifen to inhibit cytokine release from stimulated human leucocytes.
The study was conducted in two phases. The first phase included optimization of the test methodology and including dose-range finding studies, using buffy coats from 3 human donors, stimulated with phytohemagglutinin (PHA). Following optimization of the test conditions, a final protocol was issued. In the ensuing Main Study, white blood cells (buffy coats) from 5 healthy human donors were stimulated with PHA, 5 μg/ml. The concentrations of the test article and the duration of exposure were optimized to obtain acceptable dose-response ratios. Thus, the inhibitory effects of three concentrations of NK and one concentration of ketotifen were evaluated in the Main Study. The buffy coats containing white blood cells from 5 male human donors were resuspended in assay media and were pre-incubated for 30 min with either vehicle/saline, ketotifen 4.3 μg/ml (10 μM) and norketotifen 0.4 μg/ml, 4.1 μg/ml and 41 μg/ml (1.0; 10 and 100 μM). Following these preincubations, the white blood cells were stimulated for 16 hours with PHA, 5 μg/ml. The cell system supernatants were then harvested and stored frozen pending analyses. […]

INF-γ = experiment: PHA-induced INF-γ release from human leucocytes (buffy coats); format: cell-based; settings: Leucocyte, 30 min pre-incubation, PHA 5 μg/ml 16 hours
Description: as §1
(§2) The study was conducted in two phases. The first phase included optimization of the test methodology and including dose-range finding studies, using buffy coats from 3 human donors, stimulated with phytohemagglutinin (PHA). Following optimization of the test conditions, a final protocol was issued. In the ensuing Main Study, white blood cells (buffy coats) from 5 healthy human donors were stimulated with PHA, 5 μg/ml. The concentrations of the test article and the duration of exposure were optimized to obtain acceptable dose-response ratios. Thus, the inhibitory effects of three concentrations of NK and one concentration of ketotifen were evaluated in the Main Study. The buffy coats containing white blood cells from 5 male human donors were resuspended in assay media and were pre-incubated for 30 min with either vehicle/saline, ketotifen 4.3 μg/ml (10 μM) and norketotifen 0.4 μg/ml, 4.1 μg/ml and 41 μg/ml (1.0; 10 and 100 μM). Following these preincubations, the white blood cells were stimulated for 16 hours with PHA, 5 μg/ml. The cell system supernatants were then harvested and stored frozen pending analyses.
(§3) The concentration of the test articles had to be high in this ex vivo study since the test kit used a high concentration of the agonist PHA (5 μg/ml) and a long exposure time (16 hrs).

[2] = Dermal and plasma concentrations of NK after oral dosing to dogs; format: in vivo
Description: The purpose was to determine drug concentrations and calculate pharmacokinetics in the skin and plasma of dogs during and following daily oral administration of S-NK-HF (the S-isomer of norketotifen hydrogen fumarate) for four weeks.
Five male beagle dogs, weighing 11.2-13.9 kg (2-4 years old) were included in the study. All animals were administered p.o. doses of the test article 8.0 mg/kg/day as a hydrogen fumarate salt, equal to 5.6 mg/kg/day of the free base. A single isomer of NK was used, since an objective of this study was also to assess the racemization of the NK isomers. The animals were dosed once daily for four weeks followed by daily observations and tissue sampling for an additional two-week washout period.
Multiple plasma samples and skin biopsies were taken from each dog on Day 1 and Day 28 of drug administration. The plasma and skin samplings were performed at pre-dose, and at 2, 6, 12, and 24 hours post-dose. Plasma and skin samples were also taken intermittently at predetermined intervals during the 28-days dosing period and up to the last day of the study, which was Day 42. Blood samples were taken from v. cephalica antebrachii. Skin biopsies were taken from the area between the mid ventral to lateral abdominal areas, using a 6 mm skin biopsy punch. Subcutaneous fat deposits were carefully trimmed from the skin samples and the skin samples were then weighed. All plasma and skin samples were analyzed using LC/MS/MS methodology.

IL-10 = experiment: PHA-induced IL-10 release from human leucocytes (buffy coats); format: cell-based; settings: Leucocyte, 30 min pre-incubation, PHA 5 μg/ml 16 hours
Description: as §1, §2, §3

sedation [3] = settings: humans, oral; U.S. Pat. Nos. 9,138,431 and 9,345,697; cited from earlier work
IL-13 = experiment: PHA-induced IL-13 release from human leucocytes (buffy coats); format: cell-based; settings: Leucocyte, 30 min pre-incubation, PHA 5 μg/ml 16 hours
Description: as §1, §2, §3

IL-2 = experiment: PHA-induced IL-2 release from human leucocytes (buffy coats); format: cell-based; settings: Leucocyte, 30 min pre-incubation, PHA 5 μg/ml 16 hours
Description: as §1, §2, §3

MIP-1a = experiment: PHA-induced MIP-1a release from human leucocytes (buffy coats); format: cell-based; settings: Leucocyte, 30 min pre-incubation, PHA 5 μg/ml 16 hours
Description: as §1, §2, §3

[4] = system: IL31-induced (SC) pruritus; experiment: IL-31-induced pruritus in mice; format: in vivo; settings: at the dose tested
Description: To determine if NK inhibits IL31-induced pruritus in mice. Studies have now been performed, using murine IL31 as a pruritogen. Mice were dosed orally with a test article exactly 60 minutes before murine IL31 at a dose of 1.0 μg/30 gram body weight was injected subcutaneously into a previously depilated area on the rostral part of the back of mice. IL31 was dissolved in phosphate buffered saline (PBS) with 0.1% bovine serum albumin (BSA). The injected volume was 0.1 ml/mouse. The bouts of scratching were counted for 120 min, starting 30 min after the injection of IL31. The bouts of scratching were counted by trained laboratory personnel who were unaware of the pretreatment of the animals. Oclacitinib (Apoquel®) is a Janus kinase inhibitor that is the worldwide market leader for oral treatment of atopic dermatitis in dogs.

sedation [5] = settings: dogs, oral; U.S. Pat. No. 8,557,846; cited from earlier work
IL-6 = experiment: PHA-induced IL-6 release from human leucocytes (buffy coats); format: cell-based; settings: Leucocyte, 30 min pre-incubation, PHA 5 μg/ml 16 hours
Description: as §1, §2, §3

With `O=C1Cc2ccccc2C(=C2CCNCC2)c2ccsc21` (racemic) [NK, norketotifen] the “Inhibition of release of cytokines and chemokines from human white blood cells (in words)” value [1] was “dose-dependently inhibited”, the inhibition at 1 µM (INF-γ; 1 uM) was 0% and the inhibition at 10 µM (INF-γ; 10 uM) was 16.5%. The inhibition at 100 µM (INF-γ; 100 uM) was 71.6%, the half-life ([2]; male, beagle, dog, plasma, oral, 8 mg/kg/day, plasma, read-out: Plasma half-life) was 10 to 11 h and the half-life ([2]; male, beagle, dog, plasma, po, 8 mg/kg/day, oral S-NK 8.0 mg/kg/day for 28 days, dogs (N = 5), plasma, read-out: T1/2 Plasma (converted)) was 10.5 h. The half-life ([2]; male, beagle, dog, skin, oral, 8 mg/kg/day, skin, read-out: Dermal half-life (duration of high concentration in the skin)) was at most 168 h, the Kp ([2]; male, beagle, dog, skin, oral, 8 mg/kg/day, under laboratory conditions, read-out: Skin concentration relative to plasma concentration) was at most 16 and the half-life ([2]; male, beagle, dog, skin, po, 8 mg/kg/day, oral S-NK 8.0 mg/kg/day for 28 days, dogs (N = 5), skin, read-out: T1/2 Skin (converted)) was 168 h. For the same compound, the MRT ([2]; male, beagle, dog, oral S-NK 8.0 mg/kg/day for 28 days, dogs (N = 5), plasma, read-out: MRT Plasma) was 12.8 h, the MRT ([2]; male, beagle, dog, oral S-NK 8.0 mg/kg/day for 28 days, dogs (N = 5), skin, read-out: MRT Skin) was 169 h and the “AUC∞ Plasma” value ([2]; oral S-NK 8.0 mg/kg/day for 28 days, dogs (N = 5), plasma) was 3286 ng*hr/mL or g. For the same compound, the “AUC∞ Skin” value ([2]; oral S-NK 8.0 mg/kg/day for 28 days, dogs (N = 5), skin) was 54187 ng*hr/mL or g, the “Dermal half-life in skin of dogs (in words)” value ([2]; skin of dogs) was “one week” and the inhibition at 1 µM (IL-10; 1 uM) was 12.7%. For the same compound, the inhibition at 10 µM (IL-10; 10 uM) was 24.8%, the inhibition at 100 µM (IL-10; 100 uM) was 90.4% and the Sedative side effects (sedation [3]) was “free from sedative side effects”. The inhibition at 1 µM (IL-13; 1 uM) was 0%, the inhibition at 10 µM (IL-13; 10 uM) was 34.5% and the inhibition at 100 µM (IL-13; 100 uM) was 74.2%. For the same compound, the inhibition at 1 µM (IL-2; 1 uM) was 0%, the inhibition at 10 µM (IL-2; 10 uM) was 46.6% and the inhibition at 100 µM (IL-2; 100 uM) was 93.5%. It also gave an inhibition at 1 µM (MIP-1a; 1 uM) of 9.53%, an inhibition at 10 µM (MIP-1a; 10 uM) of 25.9% and an inhibition at 100 µM (MIP-1a; 100 uM) of 91%. The “Effect on IL-31-induced pruritus (in words)” value [4] was “decreased IL-31-induced pruritus”, the Sedative side effects (sedation [5]) was “free from sedative side effects” and the inhibition at 1 µM (IL-6; 1 uM) was 0%. The inhibition at 10 µM (IL-6; 10 uM) was 33.1% and the inhibition at 100 µM (IL-6; 100 uM) was 88.2%.
